# Experiments:
# [1] = tested on: cultured human mast cells (CHMC); experiment: CHMC low cell density IgE activation: tryptase assay; type: cell-based; settings: low cell density CHMC, IgE activation
# Outline: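 Anti-IgE-driven degranulation of cultured human mast cells at low density, 1000–1500 cells/well, was induced over 30 min at 37 °C. It was scored by supernatant tryptase activity on a fluorogenic substrate.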
# [2] = tested on: cultured human mast cells (CHMC); experiment: CHMC low cell density ionomycin activation: tryptase assay; type: cell-based; settings: low cell density CHMC, 3 pt, read-out: LD Tryptase, CHMC, Iono, 3 pt
# [3] = Homo sapiens, Mast cell, tryptase readout, 3 pt, read-out: LD Tryptase, CHMC, IgE, 3 pt
# [4] = Homo sapiens, Mast cell, tryptase readout
# [5] = Homo sapiens, Mast cell, tryptase readout, 8 pt, read-out: LD Tryptase, CHMC, IgE, 8 pt
# [6] = Homo sapiens, Mast cell, tryptase, 3 pt, read-out: LD Tryptase, CHMC, IgE, 3 pt
# [7] = Homo sapiens, Mast cell, tryptase
# [8] = Homo sapiens, Mast cell, tryptase, 8 pt, read-out: LD Tryptase, CHMC, IgE, 8 pt
# [9] = tryptase, 3 pt, read-out: LD Tryptase, CHMC, IgE, 3 pt
# [10] = tryptase, 8 pt, read-out: LD Tryptase, CHMC, IgE, 8 pt
compound,measurement,setting,value
"COC(=O)N1CCN(c2ccc(Nc3ncc(F)c(Nc4cccc(NC5=NCCN5)c4)n3)cc2)CC1 [Compound 1100, 5-Fluoro-N4-[3-(N-2-imidazolin-2-yl)aminophenyl]-N2-[4-(4-methoxycarbonylpiperazino)phenyl]-2,4-pyrimidinediamine]",IC50,[1]; [3],> 10 µM
same,IC50,[2]; [4],> 10 µM
"CCOC(=O)N1CCN(c2cccc(Nc3ncc(F)c(Nc4cc(C(C)(C)C)[nH]n4)n3)c2)CC1 [Compound 1101, N4-(5-tert-Butyl-1H-pyrazol-3-yl)-N2-[3-(4-ethoxycarbonylpiperazino)phenyl]-5-fluoro-2,4-pyrimidinediamine]",IC50,[1]; [3],< 10 µM
same,IC50,[2]; [4],> 10 µM
CC(=O)N1CCN(c2ccc(Nc3ncc(F)c(Nc4cc(C(C)(C)C)[nH]n4)n3)cc2)CC1 [Compound 1102],IC50,[1]; [3],< 10 µM
same,IC50,[1]; [5],< 10 µM
same,IC50,[2]; [4],> 10 µM
COC(=O)N1CCN(c2ccc(Nc3ncc(F)c(Nc4cc(C(C)(C)C)[nH]n4)n3)cc2)CC1 [Compound 1103],IC50,[1]; [3],< 10 µM
same,IC50,[1]; [5],< 10 µM
same,IC50,[2]; [4],> 10 µM
CN1CCN(c2ccc(Nc3ncc(F)c(Nc4cc(C(C)(C)C)[nH]n4)n3)cc2)CC1 [Compound 1104],IC50,[1]; [3],< 10 µM
same,IC50,[1]; [5],< 10 µM
same,IC50,[2]; [4],> 10 µM
"CC(=O)N1CCN(c2ccc(Nc3ncc(F)c(Nc4cccc(NC5=NCCN5)c4)n3)cc2)CC1 [Compound 1105, N2-[4-(4-Acetylpiperazino)phenyl]-5-fluoro-N4-[3-(N-2-imidazolin-2-yl)aminophenyl]-2,4-pyrimidinediamine]",IC50,[1]; [3],> 10 µM
same,IC50,[2]; [4],> 10 µM
CC(=O)N1CCN(c2cccc(Nc3ncc(F)c(Nc4cccc(NC5=NCCN5)c4)n3)c2)CC1 [Compound 1106],IC50,[1]; [3],> 10 µM
same,IC50,[2]; [4],> 10 µM
"CCOC(=O)c1cc2cccc(Nc3ncc(F)c(NC4CCC4)n3)c2[nH]1 [Compound 1107, N4-Cyclobutyl-N2-[2-(ethoxycarbonyl)indol-7-yl]-5-fluoro-2,4-pyrimidinediamine]",IC50,[1]; [3],< 10 µM
same,IC50,[2]; [4],< 10 µM
"Fc1cnc(Nc2cccc(N3CCOCC3)c2)nc1NC1CCC1 [Compound 1108, N4-Cyclobutyl-5-fluoro-N2-(3-morpholinophenyl)-2,4-pyrimidinediamine]",IC50,[1]; [3],< 10 µM
same,IC50,[1]; [5],< 10 µM
same,IC50,[2]; [4],> 10 µM
"CCOC(=O)N1CCN(c2cccc(Nc3ncc(F)c(NC4CCC4)n3)c2)CC1 [Compound 1109, N4-Cyclobutyl-N2-[3-(4-ethoxycarbonylpiperazino)pheny]-5-fluoro-2,4-pyrimidinediamine]",IC50,"[1]; tryptase readout, 3 pt, read-out: LD Tryptase, CHMC, IgE, 3 pt",< 10 µM
same,IC50,[2]; tryptase readout,> 10 µM
"CN1CCN(c2ccc(Nc3ncc(F)c(NC4CCC4)n3)cc2)CC1 [Compound 1110, N4-Cyclobutyl-5-fluoro-N2-[4-(4-methylpiperazino)phenyl]-2,4-pyrimidinediamine]",IC50,[1]; [3],< 10 µM
same,IC50,[2]; [4],> 10 µM
"CCOC(=O)N1CCN(c2ccc(Nc3ncc(F)c(NC4CCC4)n3)cc2)CC1 [Compound 1111, N4-Cyclobutyl-N2-[4-(4-ethoxycarbonylpiperazino)phenyl]-5-fluoro-2,4-pyrimidinediamine]",IC50,[1]; [6],< 10 µM
same,IC50,[2]; [7],> 10 µM
CC(=O)N1CCN(c2cccc(Nc3ncc(F)c(Nc4cc(C5CC5)n[nH]4)n3)c2)CC1 [Compound 1112],IC50,[1]; [6],< 10 µM
same,IC50,[1]; [8],< 10 µM
same,IC50,[2]; [7],< 10 µM
"CN1CCN(c2ccc(Nc3ncc(F)c(Nc4cc(C5CC5)n[nH]4)n3)cc2)CC1 [Compound 1113, N4-(3-Cyclopropyl-1H-pyrazol-5-yl)-5-fluoro-N2-[4-(4-methylpiperazino)phenyl]-2,4-pyrimidinediamine]",IC50,[1]; [6],< 10 µM
same,IC50,[1]; [8],< 10 µM
same,IC50,[2]; [7],> 10 µM
Fc1cnc(Nc2cccc(N3CCOCC3)c2)nc1Nc1cc(C2CC2)n[nH]1 [Compound 1114],IC50,[1]; [6],< 10 µM
same,IC50,[1]; [8],< 10 µM
same,IC50,[2]; [7],> 10 µM
CCOC(=O)N1CCN(c2cccc(Nc3ncc(F)c(Nc4cc(C5CC5)n[nH]4)n3)c2)CC1 [Compound 1115],IC50,[1]; [6],< 10 µM
same,IC50,[2]; [7],< 10 µM
"CCOC(=O)N1CCN(c2ccc(Nc3ncc(F)c(Nc4cc(C5CC5)n[nH]4)n3)cc2)CC1 [Compound 1116, N4-(3-Cyclopropyl-1H-pyrazol-5-yl)-N2-[4-(4-ethoxycarbonylpiperazino)phenyl]-5-fluoro-2,4-pyrimidinediamine]",IC50,[1]; [6],< 10 µM
same,IC50,[2]; [7],< 10 µM
"Fc1cnc(Cl)nc1Nc1ccc2c(n1)NCCO2 [Compound 1117, 2-Chloro-5-fluoro-N4-(3,4-dihydro-2H,4H-5-pyrid[1,4]oxazin-6-yl)-4-pyrimidineamine]",IC50,[1]; [9],> 10 µM
same,IC50,[2]; tryptase,> 10 µM
"CC(C)(C)OC(=O)N1CC(Nc2nc(Nc3ccc(N4CCOCC4)cc3)ncc2F)C1 [Compound 1118, N4-(1-tert-Butoxycarbonylazetidin-3-yl)-5-fluoro-N2-(4-morpholinophenyl)-2,4-pyrimidinediamine]",IC50,[1]; [6],< 10 µM
same,IC50,[2]; [7],< 10 µM
"CC(=O)N1CCN(c2ccc(Nc3ncc(F)c(NC4CN(C(=O)OC(C)(C)C)C4)n3)cc2)CC1 [Compound 1119, N2-[4-(4-Acetylpiperazino)phenyl]-N4-(1-tert-butoxycarbonylazetidin-3-yl)-5-fluoro-2,4-pyrimidinediamine]",IC50,[1]; [6],< 10 µM
same,IC50,[2]; [7],> 10 µM
"CC(=O)N1CCN(c2cccc(Nc3ncc(F)c(NC4CN(C(=O)OC(C)(C)C)C4)n3)c2)CC1 [Compound 1120, N2-[3-(4-Acetylpiperazino)phenyl]-N4-(1-tert-butoxycarbonylazetidin-3-yl)-5-fluoro-2,4-pyrimidinediamine]",IC50,[1]; [6],> 10 µM
same,IC50,[2]; [7],> 10 µM
Fc1cnc(Nc2ccc(N3CCOCC3)cc2)nc1Nc1cc(C2CC2)n[nH]1 [Compound 1121],IC50,[1]; [6],< 10 µM
same,IC50,[1]; [8],< 10 µM
same,IC50,[2]; [7],> 10 µM
CCOC(=O)N1CCN(c2ccc(Nc3ncc(F)c(NC4CN(C(=O)OC(C)(C)C)C4)n3)cc2)CC1 [Compound 1122],IC50,[1]; [6],< 10 µM
same,IC50,[2]; [7],> 10 µM
Fc1cnc(Nc2ccc(N3CCOCC3)cc2)nc1NC1CNC1 [Compound 1123],IC50,[1]; [6],> 10 µM
same,IC50,[2]; [7],< 10 µM
CC(=O)N1CCN(c2ccc(Nc3ncc(F)c(NC4CNC4)n3)cc2)CC1 [Compound 1124],IC50,[1]; [6],> 10 µM
same,IC50,[2]; [7],> 10 µM
CCOC(=O)N1CCN(c2ccc(Nc3ncc(F)c(NC4CNC4)n3)cc2)CC1 [Compound 1125],IC50,[1]; [6],> 10 µM
same,IC50,[2]; [7],> 10 µM
Fc1cnc(Nc2cccc(N3CCOCC3)c2)nc1NC1CNC1 [Compound 1126],IC50,[1]; [6],> 10 µM
same,IC50,[2]; [7],< 10 µM
CC(=O)N1CCN(c2cccc(Nc3ncc(F)c(NC4CNC4)n3)c2)CC1 [Compound 1127],IC50,[1]; [6],< 10 µM
same,IC50,[2]; [7],> 10 µM
"Fc1cnc(Nc2ccc(N3CCOCC3)cc2)nc1Nc1ccc2c(n1)NCCO2 [Compound 1128, N4-(3,4-Dihydro-2H,4H-5-pyrid[1,4]oxazin-6-yl)-5-fluoro-N2-(4-morpholinophenyl)-2,4-pyrimidinediamine]",IC50,[1]; [10],< 10 µM
same,IC50,[2]; tryptase,> 10 µM
"CN(c1nc(Nc2ccc(N3CCOCC3)cc2)ncc1F)C1CCC1 [Compound 1139, N4-Cyclobutyl-5-fluoro-N4-methyl-N2-(4-morpholinophenyl)-2,4-pyrimidinediamine]",IC50,[1]; [6],< 10 µM
same,IC50,[2]; [7],> 10 µM
"CC(=O)N1CCN(c2ccc(Nc3ncc(F)c(N(C)C4CCC4)n3)cc2)CC1 [Compound 1140, N2-[4-(4-Acetylpiperazino)phenyl]-N4-cyclobutyl-5-fluoro-N4-methyl-2,4-pyrimidinediamine]",IC50,[1]; [6],< 10 µM
same,IC50,[2]; [7],> 10 µM
"CN1CCN(c2ccc(Nc3ncc(F)c(Nc4ccc5c(n4)NCCO5)n3)cc2)CC1 [Compound 1141, N4-(3,4-Dihydro-2H,4H-5-pyrid[1,4]oxazin-6-yl)-5-fluoro-N2-[4-(4-methylpiperazino)phenyl]-2,4-pyrimidinediamine]",IC50,[1]; [9],< 10 µM
same,IC50,[1]; [10],< 10 µM
same,IC50,[2]; tryptase,> 10 µM
"CN1CCN(c2cccc(Nc3ncc(F)c(Nc4ccc5c(n4)NCCO5)n3)c2)CC1 [Compound 1142, N4-(3,4-Dihydro-2H,4H-5-pyrid[1,4]oxazin-6-yl)-5-fluoro-N2-[3-(4-methylpiperazino)phenyl]-2,4-pyrimidinediamine]",IC50,[1]; [9],< 10 µM
same,IC50,[1]; [10],< 10 µM
same,IC50,[2]; tryptase,> 10 µM
"Fc1cnc(Nc2cccc(-c3ncco3)c2)nc1Nc1ccc2c(n1)NCCO2 [Compound 1143, N4-(3,4-Dihydro-2H,4H-5-pyrid[1,4]oxazin-6-yl)-5-fluoro-N2-[3-(oxazol-2-yl)phenyl]-2,4-pyrimidinediamine]",IC50,[1]; [9],< 10 µM
same,IC50,[1]; [10],< 10 µM
same,IC50,[2]; tryptase,> 10 µM
"COc1cc(Nc2ncc(F)c(Nc3ccc4c(n3)NCCO4)n2)cc(OC)c1OC [Compound 1145, N4-(3,4-Dihydro-2H,4H-5-pyrid[1,4]oxazin-6-yl)-5-fluoro-N2-(3,4,5-trimethoxyphenyl)-2,4-pyrimidinediamine]",IC50,[1]; [6],< 10 µM
same,IC50,[1]; [8],< 10 µM
same,IC50,[2]; [7],> 10 µM
"COc1ccc(Nc2ncc(F)c(Nc3ccc4c(n3)NCCO4)n2)cc1Cl [Compound 1146, N2-(3-Chloro-4-methoxyphenyl)-N4-(3,4-dihydro-2H,4H-5-pyrid[1,4]oxazin-6-yl)-5-fluoro-2,4-pyrimidinediamine]",IC50,[1]; [9],< 10 µM
same,IC50,[2]; tryptase,> 10 µM

# Reference: patent publication US20220073536A1 (Rigel Pharmaceuticals, Inc., priority 2003, published 2022)
